Measurements: paper PMC4055595, “Pharmacokinetic Compatibility of Ginsenosides and Schisandra Lignans in Shengmai-san: From the Perspective of P-Glycoprotein” (PLoS ONE, 2014)
Like-named read-outs stand apart in the source and are kept apart here.

Assays:
P-gp (MDR1) = P-gp (MDR1) (Homo sapiens, UniProt P08183); test: Transport of digoxin and ginsenosides across L-MDR1 cell monolayers (efflux ratio); format: in vitro ADME; details: human, read-out: Efflux ratio (Papp BL-AP / Papp AP-BL)
Procedure: (§1) LLC-PK1 cells, a cell line lacking P-gp, and the derived cell line L-MDR1, which over-express human MDR1-encoded P-gp, were grown in minimum essential medium with supplements at 37°C, 5% CO2, and 95% humidity. LLC-PK1 and L-MDR1 cells were seeded at a density of 12×10^6 cells per 150-cm^2 flask and grown for 7 days in medium 199 supplemented with 2 mM glutamine, 10% fetal bovine serum, 10 mg/500 mL of streptomycin, and 10,000 IU/500 mL of penicillin. To ensure a constant expression level of transport protein, L-MDR1 cells were grown in the presence of 640 nM vincristine. Cells were grown as monolayer on polycarbonate membrane filters (Transwell; Costar Corporation, Cambridge, MA) as outlined previously. Transepithelial resistance was measured in each well using a Millicell ERS ohmmeter (Millipore, Bedford, MA); wells registering a resistance of 200 ohms or greater, after correcting for the resistance obtained in control blank wells, were used in the transport experiments.
(§2) The LLC-PK1 and L-MDR1 cells were washed with warm Hank's balanced salt solution HBSS (pH 7.4) twice before transport experiment. HBSS containing verapamil (10 µM), SLE (2.0 and 10.0 µg/mL) or blank HBSS (control) was then loaded into both apical and basolateral chambers. After incubation at 37°C for 1.5 h, GE (100 µg/mL) was added to either the apical or basolateral side to evaluate the transport in absorptive and secretive directions, respectively. The cell monolayer was then incubated for another 2 h. Finally, the concentrations of ginsenosides were determined by LC/MS. All experiments were conducted in triplicate.
(§3) For the transport assay, the apparent permeability (P app, cm/s) in each direction (A→B and B→A) was calculated as follows, where A is the surface area of the membrane inserts (0.0804 cm^2), C 0 is the initial concentration of the compound applied in the donor compartment (2 µM), and △Q is the amount (micromoles) of compound transported over time △t (5 h = 18,000 s): [drawing 1]
(§4) The efflux ratio (ER) was a dimensionless number calculated as the ratio of the apparent permeability in the B→A direction divided by the apparent permeability in the A→B direction. [drawing 2]

[1] = target: T1, human MDR1-encoded P-gp (L-MDR1 cells) (Homo sapiens, UniProt P08183); test: as above; format: in vitro ADME; details: for Effect of verapamil on efflux ratio / Papp / Effect of SLE on efflux ratio / transport: L-MDR1 cells; for Effect of verapamil on efflux ratio / Papp: 10 µM verapamil; for Effect of SLE on efflux ratio / transport: SLE 2.0 and 10.0 µg/mL; for P-gp substrate classification: summary of transport/uptake in LLC-PK1, L-MDR1 and Caco-2 cells with verapamil
Procedure: as §1, §2, §3, §4

[2] = system: LLC-PK1 cells (lacking P-gp); test: Transport of digoxin and ginsenosides across LLC-PK1 cell monolayers; format: in vitro ADME; details: for Effect of verapamil on transport (efflux ratio): 10 µM verapamil; for Effect of SLE on transport (AP→BL, BL→AP): SLE 2.0 and 10.0 µg/mL
Procedure: as §1, §2, §3, §4

[3] = system: LLC-PK1 cells (lacking P-gp); test: Uptake (intracellular accumulation) of digoxin and ginsenosides in LLC-PK1 cells; format: in vitro ADME; details: for Effect of verapamil on intracellular accumulation: 10 µM verapamil; for Effect of SLE on intracellular accumulation: SLE 2.0 and 10.0 µg/mL
Procedure: as §1
(§5) LLC-PK1 and L-MDR1 cells were incubated with SLE (2.0 and 10.0 µg/mL) or verapamil (10 µM) for 1.0 h, and then were washed to discard SLE or verapamil before adding 100 µg/mL of GE. The accumulation of GE lasted for 2 h, and the intracellular concentrations of ginsenosides were measured by LC/MS. All experiments were conducted in triplicate.

[4] = target: T1, human MDR1-encoded P-gp (L-MDR1 cells); test: Uptake (intracellular concentration) of digoxin and ginsenosides in L-MDR1 cells; format: in vitro ADME
Procedure: as §1, §5

[5] = Transport of digoxin and ginsenosides across Caco-2 cell monolayer (efflux ratio); format: in vitro ADME, human; details: human, Caco-2, pH 7.4
Procedure: (§6) Caco-2 cells were purchased from American Type Culture Collection (Manassas, VA), and were routinely cultured in Dulbecco's modified Eagle's medium supplemented with 10% fetal bovine serum, 1% nonessential amino acids, 1 mM sodium pyruvate, and 100 U/mL penicillin and streptomycin (Invitrogen, Carlsbad, CA). The cells were grown in an atmosphere of 5% CO2 at 37°C, and cell medium was changed every other day. Cells were seeded at a density of 4×10^4 cells per well in 24-well microporous polycarbonate insert filter plates (0.4-µm pore size) (Corning Costar plates; Corning Life Sciences, Lowell, MA) and grown for 15 days in Caco-2 growth medium. The medium was replaced every 3 to 4 days. Before running the assay, the culture medium was replaced by HBSS buffer supplemented with 10 mM Hepes and 20 mM glucose.
(§7) Caco-2 cells with a density of 1.2×10^5 cells/insert were seeded on a permeable polycarbonate insert (Millicell cell culture inserts, 0.4 µm pore size, 12 mm diameter; Millipore Corporation) in 24-well tissue culture plates and were used for the experiment 18 to 21 days after seeding. [^14C]Mannitol permeability and transepithelial electrical resistance measurements (Millicell-ERS epithelial volt-ohm meter; Millipore Corporation) were used to evaluate the integrity of Caco-2 cell monolayer. The monolayer used in transport studies had transepithelial electrical resistance values exceeding 600 Ω·cm^2, and the leakage of mannitol was less than 0.3% of the dose/h. Before transport initiation studies, the cell monolayer was first washed with warm HBSS (pH 7.4) twice. HBSS containing SLE (2.0 and 10.0 µg/mL) or 1% ethanol (control) was then loaded into both apical and basolateral chambers. After incubation at 37°C for 1.5 h, 100 µg/mL of GE was added to either the apical or basolateral side to evaluate the transport in absorptive and secretory directions, and the cell monolayer was incubated for another 2 h. 10 µM verapamil was used as a positive control inhibitor. At the designated time point, samples were taken from the receiving chamber for analysis. Ginsenosides were determined by LC-MS. All experiments were conducted in triplicate.
as §3, §4

Caco-2 cell monolayer = test: as above; format: in vitro ADME, human
Procedure: as §6, §7, §3, §4

Caco-2 cells = test: Uptake of digoxin and ginsenosides in Caco-2 cells; format: in vitro ADME, human
Procedure: as §6
Caco-2 cells were incubated with SLE (2.0 and 10.0 µg/mL) or verapamil (10 µM) for 1.0 h. Then the cells were washed with Hank's to discard SLE or verapamil before the addition of GE (100 µg/mL). The accumulation of ginsenosides lasted for 2 h, and the intracellular concentrations of ginsenosides were measured by LC/MS. All experiments were conducted in triplicate.

[6] = LLC-PK1, pH 7.4, L-MDR1 cells, control (absence of verapamil), GE 100 µg/mL, 2 h
[7] = LLC-PK1, pH 7.4, with verapamil 10 µM, L-MDR1 cells, presence of 10 µM verapamil
[8] = LLC-PK1, pH 7.4, L-MDR1 cells, presence of 10 µM verapamil

Chain of P-gp (MDR1) (P08183 whole entry): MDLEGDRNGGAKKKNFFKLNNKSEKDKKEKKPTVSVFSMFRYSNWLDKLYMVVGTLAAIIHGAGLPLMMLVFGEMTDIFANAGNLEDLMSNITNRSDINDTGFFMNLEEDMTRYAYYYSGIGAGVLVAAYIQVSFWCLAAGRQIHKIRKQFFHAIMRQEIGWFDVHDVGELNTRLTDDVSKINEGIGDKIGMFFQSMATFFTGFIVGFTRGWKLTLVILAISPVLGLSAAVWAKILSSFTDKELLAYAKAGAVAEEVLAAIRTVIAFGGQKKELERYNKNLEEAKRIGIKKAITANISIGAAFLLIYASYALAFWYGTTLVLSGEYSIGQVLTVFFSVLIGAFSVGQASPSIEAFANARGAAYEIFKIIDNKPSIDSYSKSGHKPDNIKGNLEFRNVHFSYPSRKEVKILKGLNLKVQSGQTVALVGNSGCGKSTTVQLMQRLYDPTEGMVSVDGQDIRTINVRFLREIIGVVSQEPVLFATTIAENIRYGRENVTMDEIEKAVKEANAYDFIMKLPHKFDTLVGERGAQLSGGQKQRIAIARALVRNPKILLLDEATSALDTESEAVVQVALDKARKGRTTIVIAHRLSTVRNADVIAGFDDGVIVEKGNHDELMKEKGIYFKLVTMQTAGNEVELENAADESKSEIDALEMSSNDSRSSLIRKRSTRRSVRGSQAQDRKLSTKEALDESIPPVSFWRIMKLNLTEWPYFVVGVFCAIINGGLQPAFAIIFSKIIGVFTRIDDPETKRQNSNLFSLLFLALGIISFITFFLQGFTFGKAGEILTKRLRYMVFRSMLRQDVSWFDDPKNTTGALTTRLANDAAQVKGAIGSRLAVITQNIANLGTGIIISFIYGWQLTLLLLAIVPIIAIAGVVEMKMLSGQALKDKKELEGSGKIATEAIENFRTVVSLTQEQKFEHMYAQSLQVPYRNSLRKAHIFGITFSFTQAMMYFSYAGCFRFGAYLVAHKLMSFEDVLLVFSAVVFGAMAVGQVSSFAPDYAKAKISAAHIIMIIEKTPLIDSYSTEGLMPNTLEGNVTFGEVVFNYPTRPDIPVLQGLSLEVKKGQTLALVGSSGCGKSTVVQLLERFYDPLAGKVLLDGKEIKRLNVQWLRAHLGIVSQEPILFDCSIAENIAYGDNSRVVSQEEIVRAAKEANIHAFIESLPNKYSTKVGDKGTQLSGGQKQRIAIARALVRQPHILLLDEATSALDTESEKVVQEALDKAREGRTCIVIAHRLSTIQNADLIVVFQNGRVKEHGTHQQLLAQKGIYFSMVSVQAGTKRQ
T1 sequence (P08183 whole entry): as above

Compound | efflux ratio at 2 h, 100 µg/mL (P-gp (MDR1); [6]) | efflux ratio at 2 h, 100 µg/mL (P-gp (MDR1); [7]) | Effect of verapamil on efflux ratio / Papp [1] | Effect of SLE on efflux ratio / transport [1] | P-gp substrate classification [1] | Effect of verapamil on transport (efflux ratio) [2] | Effect of verapamil on intracellular accumulation [3] | efflux ratio at 2 h (P-gp (MDR1); [8]) | Effect of SLE on transport (AP→BL, BL→AP) [2] | Increase of intracellular concentration by SLE ([4]; 2.0 µg/mL SLE) [fold] | Increase of intracellular concentration by SLE ([4]; 10.0 µg/mL SLE) [fold] | Effect of SLE on intracellular accumulation [3] | efflux ratio at 2 h, 100 µg/mL [5] | Effect of verapamil on efflux ratio (Caco-2 cell monolayer; Caco-2 cells, 10 µM verapamil) | Effect of SLE on BL-AP transport / efflux ratio (Caco-2 cell monolayer; Caco-2 monolayer, SLE 2.0 and 10.0 µg/mL) | Effect of verapamil on uptake (Caco-2 cells; 10 µM verapamil) | Effect of SLE on intracellular concentration (Caco-2 cells; SLE 2.0 and 10.0 µg/mL, P<0.01)
CC(C)=CCC[C@](C)(O[C@@H]1O[C@H](CO)[C@@H](O)[C@H](O)[C@H]1O)[C@H]1CC[C@]2(C)[C@@H]1[C@H](O)C[C@@H]1[C@@]3(C)CC[C@H](O)C(C)(C)[C@@H]3[C@@H](O)C[C@]12C [F1, ginsenoside F1] | < 2 | 1.99 | almost not affected by verapamil | almost not be affected by SLE | almost could not be transported by P-gp | No transport difference | almost not affected by verapamil |  |  |  |  |  |  |  |  |  | 
CC(C)=CCC[C@](C)(O[C@@H]1O[C@H](CO)[C@@H](O)[C@H](O)[C@H]1O)[C@H]1CC[C@]2(C)[C@@H]1[C@H](O)C[C@@H]1[C@@]3(C)CC[C@H](O)C(C)(C)[C@@H]3[C@@H](O[C@@H]3O[C@H](CO)[C@@H](O)[C@H](O)[C@H]3O[C@@H]3O[C@@H](C)[C@H](O)[C@@H](O)[C@H]3O)C[C@]12C [Re, ginsenoside Re] | < 2 | 2.36 | almost not affected by verapamil | almost not be affected by SLE | almost could not be transported by P-gp | No transport difference | almost not affected by verapamil |  |  |  |  |  |  |  |  |  | 
CC(C)=CCC[C@](C)(O[C@@H]1O[C@H](CO)[C@@H](O)[C@H](O)[C@H]1O)[C@H]1CC[C@]2(C)[C@@H]1[C@H](O)C[C@@H]1[C@@]3(C)CC[C@H](O)C(C)(C)[C@@H]3[C@@H](O[C@@H]3O[C@H](CO)[C@@H](O)[C@H](O)[C@H]3O)C[C@]12C [Rg1, ginsenoside Rg1] | < 2 | 1.16 | almost not affected by verapamil | almost not be affected by SLE | almost could not be transported by P-gp | No transport difference | almost not affected by verapamil |  |  |  |  |  |  |  |  |  | 
CC(C)=CCC[C@](C)(O)[C@H]1CC[C@]2(C)[C@@H]1[C@H](O)C[C@@H]1[C@@]3(C)CC[C@H](O)C(C)(C)[C@@H]3[C@@H](O[C@@H]3O[C@H](CO)[C@@H](O)[C@H](O)[C@H]3O[C@@H]3O[C@@H](C)[C@H](O)[C@@H](O)[C@H]3O)C[C@]12C [Rg2, ginsenoside Rg2] | > 3.5 |  | significantly decrease of ER | significantly decreased | moderate P-gp substrates | No transport difference | no significant difference | 1.52 | No transport difference | 1.7 | 2.1 | no significant difference | 4.26 |  |  |  | 
CC(C)=CCC[C@](C)(O)[C@H]1CC[C@]2(C)[C@@H]1[C@H](O)C[C@@H]1[C@@]3(C)CC[C@H](O[C@@H]4O[C@H](CO)[C@@H](O)[C@H](O)[C@H]4O[C@@H]4O[C@H](CO)[C@@H](O)[C@H](O)[C@H]4O)C(C)(C)[C@@H]3CC[C@]12C [Rg3, ginsenoside Rg3] |  |  | significantly decrease of ER | significantly decreased | moderate P-gp substrates | No transport difference | no significant difference |  | No transport difference | 2.5 | 2.9 | no significant difference |  | decreased significantly | concentration dependently decrease | significantly enhanced | concentration dependently increase
CC(C)=CCC[C@](C)(O)[C@H]1CC[C@]2(C)[C@@H]1[C@H](O)C[C@@H]1[C@@]3(C)CC[C@H](O)C(C)(C)[C@@H]3[C@@H](O[C@@H]3O[C@H](CO)[C@@H](O)[C@H](O)[C@H]3O)C[C@]12C [Rh1, ginsenoside Rh1] | < 2 |  | almost not affected by verapamil | almost not be affected by SLE | almost could not be transported by P-gp | No transport difference | almost not affected by verapamil | 1.6 |  |  |  |  |  |  |  |  | 
